For 5 compounds, MIC results are on record in DBAASP.

The structures appear in SMILES notation. Converted amounts (≈) assume the structure as drawn. “And” between values parts separate entries of the source, which are not always exact repeats. Identical values can stand only once.

Test systems include Candida krusei ATCC 6258; Escherichia coli W3110; Listeria monocytogenes; Escherichia coli MG1655; Escherichia coli K88.
Holding throughout (experiment): ≥ marks a high value that may be exact or a test limit, other limits are often not marked, values filed in µg/mL are converted to µM
Test [1] deals with Enterococcus faecalis ATCC 29212.
Test [2] relates to Escherichia coli ATCC 12795.
Test [3] deals with Pseudomonas aeruginosa ATCC 27312.
Test [4] has as its system Staphylococcus aureus ATCC 29213.
In test [5] the test system is Klebsiella pneumoniae ATCC 10031.
For test [6], the system named is Serratia marcescens ATCC 14756.
In test [7] the test system is Mannheimia haemolytica 82-25.
In test [8] the test system is Klebsiella pneumoniae ATCC BAA-1705.
The subject of test [9] is Staphylococcus aureus ATCC 6538P.
Test [10] relates to Pseudomonas aeruginosa PAO1.
Test [11] deals with Pseudomonas aeruginosa RP73.
The test system of test [12] is Salmonella enterica subsp. enterica serovar Enteritidis 706 RIVM.
The subject of test [13] is Escherichia coli ATCC 35218.
The test system of test [14] is Salmonella enterica subsp. enterica serovar Typhimurium ATCC 14028.
Test [15] has as its system Staphylococcus aureus WKZ2.
The test system of test [16] is Escherichia coli ATCC 25922.
The subject of test [17] is Escherichia coli MG1655 ΔrecA.
Test [18] deals with Klebsiella aerogenes ATCC 13048.
The test system of test [19] is Bacillus subtilis ATCC 63501.
The subject of test [20] is Salmonella typhimurium CMCC 50115.
The test system of test [21] is Klebsiella pneumoniae CMCC 46117.
In test [22] the test system is Shigella flexneri ATCC 12022.
Test [23] deals with Staphylococcus aureus ATCC 25923.
Test [24] relates to Salmonella enterica ATCC H9812.
For test [25], the system named is Shigella flexneri CMCC 51572.
Test [26] has as its system Escherichia coli ATCC 25922 ΔsbmA.
The subject of test [27] is Shigella dysenteriae CMCC 51252.

A word on the MIC: it is the lowest concentration found to suppress growth. The low end stands for inhibition by little substance, the high end for a need for much substance. In the case of `N[C@@H](CC(=O)O)C(=O)N[C@@H](CC(=O)O)C(=O)N[C@@H](CC(=O)O)C(=O)N[C@@H](CC(=O)O)C(=O)N[C@@H](CC(=O)O)C(=O)N[C@@H](CC(=O)O)C(=O)N[C@@H](CC(=O)O)C(=O)O` [DDDDDDD], the MIC is 1160 µM (≈ 955 µg/mL) in [1]; not below 570 µM in test [2]; not below 1500 µM in [3]; not below 3190 µM in the test with Candida krusei ATCC 6258; 940 µM (≈ 774 µg/mL) in [4]; not below 800 µM in [5]. Moreover, the MIC in [6] is not below 1500 µM; in [7] it was not below 80 µM.

`CC[C@H](C)[C@H](N)C(=O)N[C@@H](Cc1c[nH]c2ccccc12)C(=O)N[C@@H](Cc1c[nH]c2ccccc12)C(=O)N[C@@H](C)C(=O)N[C@@H](CCCCN)C(=O)N[C@@H](Cc1c[nH]c2ccccc12)C(=O)NCC(=O)N[C@@H](CC(C)C)C(=O)N[C@@H](CCCCN)C(=O)N[C@@H](CC(C)C)C(=O)N[C@@H](CC(C)C)C(=O)N[C@@H](CC(=O)O)C(=O)N[C@@H](Cc1ccc(O)cc1)C(=O)N[C@@H](CCCN=C(N)N)C(=O)N[C@@H](CCCN=C(N)N)C(=O)N[C@H](C(=O)N[C@@H](Cc1c[nH]c2ccccc12)C(=O)O)[C@@H](C)CC` [IWWAKWGLKLLDYRRIW]: the MIC is 8 µM (≈ 18.4 µg/mL) against Escherichia coli W3110 and not below 128 µM in test [8].

As for `CC(C)C[C@H](NC(=O)[C@@H](NC(=O)[C@@H]1CCCN1C(=O)[C@H](C)NC(=O)[C@H](CCCCN)NC(=O)[C@H](Cc1c[nH]c2ccccc12)NC(=O)[C@H](CCC(N)=O)NC(=O)[C@@H]1CCCN1C(=O)[C@H](Cc1ccccc1)NC(=O)[C@H](Cc1ccc(O)cc1)NC(=O)[C@H](CCCCN)NC(=O)[C@H](CCCN=C(N)N)NC(=O)[C@H](C)NC(=O)[C@@H]1CCCN1C(=O)[C@H](CC(N)=O)NC(=O)[C@H](CC(C)C)NC(=O)[C@H](CC(N)=O)NC(=O)[C@H](Cc1cnc[nH]1)NC(=O)[C@H](CCCCN)NC(=O)[C@H](CCCCN)NC(=O)[C@H](CC(C)C)NC(=O)[C@H](Cc1ccccc1)NC(=O)[C@@H]1CCCN1)[C@@H](C)O)C(=O)O` [PFLKKHNLNPARKYFPQWKAPTL], the MIC in [1] is more than 50 µM; in [9], 3.12 µM (≈ 8.72 µg/mL); in the test with Listeria monocytogenes, not below 50 µM; in [10], 25 µM (≈ 69.9 µg/mL); in [11], 12.5 µM (≈ 34.9 µg/mL); in test [12] it was not below 50 µM. In addition, the MIC is not below 50 µM in [13], more than 50 µM in [14], not below 50 µM in [15] and more than 50 µM in test [16].

For `CC(C)C[C@H](NC(=O)CNC(=O)[C@H](C)NC(=O)[C@H](CCCN=C(N)N)NC(=O)[C@H](Cc1cnc[nH]1)NC(=O)[C@@H](NC(=O)[C@@H](N)CCCN=C(N)N)[C@@H](C)O)C(=O)N[C@@H](CCC(N)=O)C(=O)N[C@@H](Cc1ccccc1)C(=O)N1CCC[C@H]1C(=O)N[C@H](C(=O)NCC(=O)N[C@@H](CCCN=C(N)N)C(=O)N[C@H](C(=O)N[C@@H](Cc1cnc[nH]1)C(=O)N[C@@H](CCCN=C(N)N)C(=O)N[C@@H](CC(C)C)C(=O)N[C@@H](CC(C)C)C(=O)N[C@@H](CCCN=C(N)N)C(=O)N[C@@H](CCCCN)C(N)=O)C(C)C)C(C)C` [RTHRAGLQFPVGRVHRLLRK], the MIC was 16 µM (≈ 38.4 µg/mL) in test [17], not below 64 µM in [18] and not below 32 µM against Escherichia coli MG1655.

As for `CC[C@H](C)[C@H](NC(=O)[C@@H]1CCCN1C(=O)[C@H](CCCN=C(N)N)NC(=O)[C@@H]1CCCN1C(=O)[C@H](CCCN=C(N)N)NC(=O)[C@@H]1CCCN1C(=O)[C@H](CC(C)C)NC(=O)[C@H](Cc1ccc(O)cc1)NC(=O)[C@@H]1CCCN1C(=O)[C@@H]1CCCN1C(=O)[C@H](CCCCN)NC(=O)[C@H](CC(=O)O)NC(=O)[C@@H](N)C(C)C)C(=O)N[C@@H](CCCN=C(N)N)C(=O)N[C@@H](CCCN=C(N)N)C(=O)N1CCC[C@H]1C(=O)NCC(=O)NCC(=O)N[C@@H](CCCN=C(N)N)C(N)=O` [VDKPPYLPRPRPIRRPGGR], the MIC in [1] is more than 512 µM; in test [19], not below 512 µM; in [20] it was 1 µM and 2 µM; in test [21], not below 256 µM; in test [22], 1 µM (≈ 2.23 µg/mL); in the test on Escherichia coli K88, 2 µM (≈ 4.45 µg/mL). Besides, the MIC was more than 512 µM in test [23]; 2 µM (≈ 4.45 µg/mL) in test [24]; 2 µM (≈ 4.45 µg/mL) in test [25]; not below 256 µM in test [5]; not below 256 µM in test [26]; 4 µM and 2 µM in [27].
